Literature values, collected in patent US20070105848A1 (priority 2005, published 2007).

How the values were obtained:
methemoglobinemia = conditions: i.v., 1 mg/kg body weight
[1] = molecular target: Plasmodium falciparum glutathione reductase (Plasmodium falciparum, UniProt O15770)
adult humans = conditions: one week to 19 months, 100 mg b.i.d. or t.i.d. orally or 100 mg i.v.

Plasmodium falciparum glutathione reductase, sequence (O15770 47-546): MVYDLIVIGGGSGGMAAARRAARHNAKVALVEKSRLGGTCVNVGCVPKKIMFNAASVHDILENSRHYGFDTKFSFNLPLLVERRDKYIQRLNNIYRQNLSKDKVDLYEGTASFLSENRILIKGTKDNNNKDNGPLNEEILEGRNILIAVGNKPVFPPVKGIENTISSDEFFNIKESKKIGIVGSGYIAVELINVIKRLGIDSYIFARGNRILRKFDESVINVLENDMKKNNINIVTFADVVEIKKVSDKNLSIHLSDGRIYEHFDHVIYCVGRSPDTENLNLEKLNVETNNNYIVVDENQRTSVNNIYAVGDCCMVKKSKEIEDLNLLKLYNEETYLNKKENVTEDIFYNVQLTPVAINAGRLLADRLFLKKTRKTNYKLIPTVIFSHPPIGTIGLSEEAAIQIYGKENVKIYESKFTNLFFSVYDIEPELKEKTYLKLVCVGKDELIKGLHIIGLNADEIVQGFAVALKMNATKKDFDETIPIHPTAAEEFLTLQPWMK

## CN(C)c1ccc2nc3ccc(N(C)C)cc3[s+]c2c1.[Cl-] [Methylene blue, 3,7-bis(dimethylamino)-phenothiazin-5-ium chloride]
malaria
  antimalarial activity: intrinsic antimalarial activity
  chloroquine sensitization: can act as a chloroquine sensitizer
methemoglobinemia
  treatment of methemoglobinemia: effective
[1]
  inhibition of Plasmodium falciparum glutathione reductase: selective inhibitor
Adult humans
  side effects on prolonged administration: minimal side effects
